Experimental data from patent US8354436B2 (4SC Discovery GmbH, priority 2011, dated 2013).

Tests used:
Format in all cases: cell-based
[1] = test system: IL-17FF; assay: IL-17FF production by PHA-stimulated human PBMC (human IL-17F ELI-Pair); conditions: PHA-stimulated human PBMC, 48 hours; column B; read-out: IC50 (IL-17FF)
Outline: (§1)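 Healthy-donor PBMC (1×10^5 cells/well) activated with 2 μg/ml PHA and incubated with compounds for 48 h. Supernatant IL-17AA/AF read by Luminex BioPlex, IL-17AA, IL-17FF and IFN-γ by ELISA. Screening at 10, 1, 0.1 and 0.01 μM; IC50 from semilogarithmic titrations.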

[2] = test system: IFN-γ; assay: IFN-γ production by PHA-stimulated human PBMC (OptEIA human IFN-g ELISA); conditions: PHA-stimulated human PBMC, 48 hours; column C; read-out: IC50 (IFNγ)
Outline: as §1

[3] = test system: PBMC from healthy human donors; assay: T cell proliferation assay (PHA-stimulated human PBMC, BrdU ELISA); conditions: PHA-stimulated human PBMC, 48 hours, column D, read-out: IC50 (Tcell proliferation)
Outline: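 Healthy-donor PBMC isolated on Ficoll, seeded at 1×10⁵ cells/well in RPMI with 10% dialysed FCS, stimulated with 2 μg/ml PHA in presence of test compound. Proliferation read after 48 hours by BrdU-incorporation ELISA.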

[4] = test system: IL-17AA/AF; assay: IL-17AA/AF production by PHA-stimulated human PBMC (Luminex BioPlex assay); conditions: 48 hours, column A, values marked with *, read-out: IC50 (IL-17AA), values marked with * determined by Luminex assay on IL17AA/AF
Procedure: Analysis of Proliferation of and Cytokine Production by Human PBMC Stimulated with PHA
Peripheral blood mononuclear cells (PBMC) from healthy human donors were purified using Accuspin™ System-Histopaque-1077 (Sigma) according to the protocol recommended by the manufacturer. Purified PBMC were then washed twice with phosphate-buffered saline (PBS) and resuspended in RPMI1640 culture medium supplemented with 10% dialyzed heat inactivated fetal calf serum, 1.5 mM L-glutamine, 100 U penicillin/ml, and […] (all from PAN Biotech, Aidenbach, Germany). For stimulation, PBMC were seeded at 1×10^5 cells/well, activated with 2 μg/ml phytohaemagglutinin (PHA, Sigma) and incubated with the test compounds for 48 hours. IL-17A, IL-17F and INF-γ were then determined in the culture supernatant using a Luminex BioPlex system, following the manufacturer's instructions (BioRad, Munich, Germany). For screening, compounds were used at 10, 1, 0.1 and 0.01 μM. To determine the IC50, compounds were titrated semilogarithmically.
Cytokines were determined in the aforementioned culture supernatant using the following methods: IL-17AA/AF was measured using the Luminex BioPlex system (BioRad, Munich, Germany); IL-17AA using the human homodimer IL-17A ELISA Ready Set Go Kit from eBioscience (Frankfurt, Germany); IL-17FF using the human IL-17F ELI-Pair from Hölzel DiagnosticaGmBH (Köln, Germany); and IFN-γ using the OptEIA human IFN-g ELISA from BD Bioscience (Heidelberg, Germany), all following the manufacturer's instructions.

| Compound | IC50 [1] [nM] | IC50 [2] [nM] | IC50 [3] [nM] | IC50 [4] [nM] |
| --- | --- | --- | --- | --- |
| COC(=O)c1c(-c2c(F)cccc2Cl)noc1-c1cnn(-c2cccc(F)c2)c1C(F)(F)F [Example I-5, methyl 3-(2-chloro-6-fluorophenyl)-5-(1-(3-fluorophenyl)-5-(trifluoromethyl)-1H-pyrazol-4-yl)isoxazole-4-carboxylate] | < 10 | < 10 | < 10 | < 10 |
| CNC(=O)c1c(-c2c(F)cccc2Cl)noc1-c1cnn(-c2cccc(F)c2)c1C(F)(F)F [Example I-62, 3-(2-chloro-6-fluorophenyl)-5-(1-(3-fluorophenyl)-5-(trifluoromethyl)-1H-pyrazol-4-yl)-N-methylisoxazole-4-carboxamide] | 10 to 100 | 10 to 100 | 10 to 100 | 100 to 1000 |
| CSC(=O)c1c(-c2c(F)cccc2Cl)noc1-c1cnn(-c2cccc(Cl)c2)c1C(F)(F)F [Example I-126, S-methyl 3-(2-chloro-6-fluorophenyl)-5-(1-(3-chlorophenyl)-5-(trifluoromethyl)-1H-pyrazol-4-yl)isoxazole-4-carbothioate] | < 10 | < 10 | < 10 | 10 to 100 |
| CSC(=O)c1c(-c2c(F)cccc2Cl)noc1-c1cnn(-c2cccc(F)c2)c1C(F)(F)F [Example I-128, S-methyl 3-(2-chloro-6-fluorophenyl)-5-(1-(3-fluorophenyl)-5-(trifluoromethyl)-1H-pyrazol-4-yl)isoxazole-4-carbothioate] | < 10 | < 10 | < 10 | < 10 |
